In series [1] the test system is Salmonella typhimurium. The experiment in a line: Mutagenicity against Salmonella typhimurium TA100 assessed as revertants at 70 uM incubated for 90 mins followed by drug washout measured after 2 days relative to positive control. In kind it is toxicity, organism-based. The conditions noted are these: salmonella enterica subsp. enterica serovar typhimurium.
Series [2] relates to Salmonella typhimurium. The series is described as follows: Mutagenicity against Salmonella typhimurium TA98 assessed as revertants at 9 uM incubated for 90 mins followed by drug washout measured after 2 days relative to positive control. The format is toxicity, organism-based. The conditions noted are these: salmonella enterica subsp. enterica serovar typhimurium.
For series [3], the system named is Salmonella typhimurium. The series is described as follows: Mutagenicity against Salmonella typhimurium TA98 assessed as revertants at 70 uM incubated for 90 mins followed by drug washout measured after 2 days relative to positive control. In kind it is toxicity, organism-based. The conditions noted are these: salmonella enterica subsp. enterica serovar typhimurium.

Series [4] relates to Plasmodium falciparum. The experiment in a line: Resistance ratio of IC50 for chloroquine-resistant Plasmodium falciparum W2 to IC50 for chloroquine-sensitive Plasmodium falciparum D10. In kind it is functional.
Series [5] concerns Salmonella typhimurium. The series is described as follows: Mutagenicity against Salmonella typhimurium TA98 assessed as revertants at 4 uM incubated for 90 mins followed by drug washout measured after 2 days relative to positive control. The format is toxicity, organism-based. The conditions noted are these: salmonella enterica subsp. enterica serovar typhimurium.
Series [6] concerns Salmonella typhimurium. The series is described as follows: Mutagenicity against Salmonella typhimurium TA100 assessed as revertants at 35 uM incubated for 90 mins followed by drug washout measured after 2 days relative to positive control. The format is toxicity, organism-based. The conditions noted are these: salmonella enterica subsp. enterica serovar typhimurium.
Series [7] has as its system Salmonella typhimurium. The series is described as follows: Mutagenicity against Salmonella typhimurium TA98 assessed as revertants at 2 uM incubated for 90 mins followed by drug washout measured after 2 days relative to positive control. The format is toxicity, organism-based. The conditions noted are these: salmonella enterica subsp. enterica serovar typhimurium, 1.5 h.

In series [8] the test system is Salmonella typhimurium. The series is described as follows: Mutagenicity against Salmonella typhimurium TA100 assessed as revertants at 2 uM incubated for 90 mins followed by drug washout measured after 2 days relative to positive control. In kind it is toxicity, organism-based. The conditions noted are these: salmonella enterica subsp. enterica serovar typhimurium.

In series [9] the test system is Salmonella typhimurium. The series is described as follows: Mutagenicity against Salmonella typhimurium TA100 assessed as revertants at 4 uM incubated for 90 mins followed by drug washout measured after 2 days relative to positive control. The format is toxicity, organism-based. The conditions noted are these: salmonella enterica subsp. enterica serovar typhimurium, 1.5 h.

Series [10] relates to Salmonella typhimurium. The series is described as follows: Mutagenicity against Salmonella typhimurium TA100 assessed as revertants at 18 uM incubated for 90 mins followed by drug washout measured after 2 days relative to positive control. The format is toxicity, organism-based. The conditions noted are these: salmonella enterica subsp. enterica serovar typhimurium.
Series [11] concerns Plasmodium falciparum. The experiment in a line: Antiplasmodial activity against chloroquine-resistant Plasmodium falciparum W2 infected in human RBC after 72 hrs by parasite lactate dehydrogenase assay. In kind it is functional, organism-based. The conditions noted are these: W2, 72 h.
Series [12] has as its system Salmonella typhimurium. The experiment in a line: Mutagenicity against Salmonella typhimurium TA98 assessed as revertants at 18 uM incubated for 90 mins followed by drug washout measured after 2 days relative to positive control. In kind it is toxicity, organism-based. The conditions noted are these: salmonella enterica subsp. enterica serovar typhimurium.
Series [13] deals with Plasmodium falciparum. The series is described as follows: Antiplasmodial activity against chloroquine-sensitive Plasmodium falciparum D10 infected in human RBC after 72 hrs by parasite lactate dehydrogenase assay. The conditions noted are these: D10, 72 h. In kind it is functional, organism-based.
In series [14] the test system is Plasmodium falciparum. The series is described as follows: Resistance ratio of IC50 for chloroquine-resistant Plasmodium falciparum K1 to IC50 for chloroquine-sensitive Plasmodium falciparum NF54. In kind it is functional.
The nature of series [15]: Cytotoxicity against human HepG2 cells after 24 hrs by neutral red dye uptake assay. In kind it is cell-based. The conditions noted are these: read-out: TC50.
Series [16] has as its system Salmonella typhimurium. The experiment in a line: Mutagenicity against Salmonella typhimurium TA100 assessed as revertants at 9 uM incubated for 90 mins followed by drug washout measured after 2 days relative to positive control. The conditions noted are these: salmonella enterica subsp. enterica serovar typhimurium, 1.5 h. In kind it is toxicity, organism-based.
Series [17] is described as follows: Cytotoxicity against mouse NIH3T3 cells after 24 hrs by neutral red dye uptake assay. In kind it is cell-based. The conditions noted are these: read-out: TC50.
The test system of series [18] is Plasmodium falciparum. The series is described as follows: Antiplasmodial activity against chloroquine-sensitive Plasmodium falciparum NF54 infected in human erythrocytes assessed as inhibition of [3H]hypoxanthine incorporation incubated for 48 hrs prior to [3H]hypoxanthine addition measured after 48 hrs by liquid scintillation counting. In kind it is functional, organism-based.

In series [19] the test system is Plasmodium falciparum. The series is described as follows: Antiplasmodial activity against chloroquine-resistant Plasmodium falciparum K1 infected in human erythrocytes assessed as inhibition of [3H]hypoxanthine incorporation incubated for 48 hrs prior to [3H]hypoxanthine addition measured after 48 hrs by liquid scintillation counting. In kind it is functional, organism-based.

Series [20] deals with Salmonella typhimurium. The series is described as follows: Mutagenicity against Salmonella typhimurium TA98 assessed as revertants at 35 uM incubated for 90 mins followed by drug washout measured after 2 days relative to positive control. In kind it is toxicity, organism-based. The conditions noted are these: salmonella enterica subsp. enterica serovar typhimurium, 1.5 h.

As for `Clc1ccc(C(Nc2ccnc3cc(Cl)ccc23)c2ccc(Cn3ccnc3)cc2)cc1` (racemic), the Activity is given as 2% in series [1]; 0% in [2]; 2% in [3]; 7% in series [5]; 2% in [6]; 0% in series [7]. The Activity in series [8] came out at 6%; in series [9], 6%; in series [10], 5%; in [12] it was 3%; in series [16], 7%; in series [20] it was 3%. In addition, the “Ratio IC50” value was found to be 1.9 in series [4] and 1.2 in [14]. In addition, the IC50 was determined as 0.057 µM in series [11], 0.03 µM in [13], 0.018 µM in [18] and 0.022 µM in [19]. For the same molecule, the results for the CC50 at 24 h in [15] and in [17] were 22 µM and 35 µM, respectively.

For the origin of these results see ChEMBL document CHEMBL2169878 (J Med Chem, 2012).
